Data reported in patent US6534524B1, “Indazole compounds and pharmaceutical compositions for inhibiting protein kinases, and methods for their use” (Agouron Pharmaceuticals, Inc., priority 1999, dated 2003).

Tested on: human umbilical vein endothelial cells (HUVEC)
Assay: HUVEC proliferation assay (VEGF-stimulated, MTT);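 on % inhibition of the proliferation of HUVEC: relative to VEGF-stimulated control minus starvation-medium baseline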
Format: cell-based
Conditions: crude reaction mixtures; for % inhibition of the proliferation of HUVEC: Library II, Y=S; for % inhibition: Library III, HUVEC proliferation, nominal concentration of 0.5 nM
Protocol: HUVEC Proliferation Assay
This assay determines the ability of a test compound to inhibit the growth factor-stimulated proliferation of human umbilical vein endothelial cells (“HUVEC”). HUVEC cells (passage 3-4, Clonetics, Corp.) were thawed into EGM2 culture medium (Clonetics Corp) in T75 flasks. Fresh EGM2 medium was added to the flasks 24 hours later. Four or five days later, cells were exposed to another culture medium (F12K medium supplemented with 10% fetal bovine serum (FBS), 60 μg/mL endothelial cell growth supplement (ECGS), and 0.1 mg/mL heparin). Exponentially-growing HUVEC cells were used in experiments thereafter. Ten to twelve thousand HUVEC cells were plated in 96-well dishes in 100 μl of rich, culture medium (described above). The cells were allowed to attach for 24 hours in this medium. The medium was then removed by aspiration and 105 μl of starvation media (F12K+1% FBS) was added to each well. After 24 hours, 15 μl of test agent dissolved in 1% DMSO in starvation medium or this vehicle alone was added into each treatment well; the final DMSO concentration was 0.1%. One hour later, 30 μl of VEGF (30 ng/mL) in starvation media was added to all wells except those containing untreated controls; the final VEGF concentration was 6 ng/mL. Cellular proliferation was quantified 72 hours later by MTT dye reduction, at which time cells were exposed for 4 hours MTT (Promega Corp.).
For screening compound library plates, one or two concentrations (one well per concentration) were employed, and the % inhibition was calculated by the following formula:
% inhibition=(control−test)÷(control−starvation)
% inhibition=(control-treated)/(control-starvation)×100

[1] = 0.5 mM (column head; text: nominal 0.5 nM)
[2] = 2 mM (column head; text: nominal 2 nM)

Structure (SMILES)	% inhibition of the proliferation of HUVEC [1] [%]	% inhibition of the proliferation of HUVEC [2] [%]	% inhibition [%]
O=C(NC1CCC(O)CC1)c1ccccc1Sc1ccc2c(C=Cc3ccccn3)n[nH]c2c1 (stereo not shown)	23	6	
O=C(O)CCNC(=O)c1ccccc1Sc1ccc2c(/C=C/c3ccccn3)n[nH]c2c1	4	20	
COCCNC(=O)c1ccccc1Sc1ccc2c(/C=C/c3ccccn3)n[nH]c2c1	21	60	
O=C(NCCCn1ccnc1)c1ccccc1Sc1ccc2c(/C=C/c3ccccn3)n[nH]c2c1	23	23	
NS(=O)(=O)c1ccc(CCNC(=O)c2ccccc2Sc2ccc3c(/C=C/c4ccccn4)n[nH]c3c2)cc1	26	37	
CCCCN(CC)CCNC(=O)c1ccccc1Sc1ccc2c(/C=C/c3ccccn3)n[nH]c2c1	2	6	
CN(C)c1ccc(CNC(=O)c2ccccc2Sc2ccc3c(/C=C/c4ccccn4)n[nH]c3c2)cc1	32	24	
O=C(NC(CO)CO)c1ccccc1Sc1ccc2c(/C=C/c3ccccn3)n[nH]c2c1	48	8	
CC(=O)NCCNC(=O)c1ccccc1Sc1ccc2c(/C=C/c3ccccn3)n[nH]c2c1	15	27	
O=C(NCCC1OCCO1)c1ccccc1Sc1ccc2c(/C=C/c3ccccn3)n[nH]c2c1	38	68	
CC(C)OCCCNC(=O)c1ccccc1Sc1ccc2c(/C=C/c3ccccn3)n[nH]c2c1	34	99	
CC(NC(=O)c1ccccc1Sc1ccc2c(/C=C/c3ccccn3)n[nH]c2c1)c1ccccc1 (stereo not shown)	30	94	
Cc1ccccc1CNC(=O)c1ccccc1Sc1ccc2c(/C=C/c3ccccn3)n[nH]c2c1	24	99	
Cc1ccc(CNC(=O)c2ccccc2Sc2ccc3c(/C=C/c4ccccn4)n[nH]c3c2)cc1	20	92	
O=C(NCCc1ccccc1)c1ccccc1Sc1ccc2c(/C=C/c3ccccn3)n[nH]c2c1	15	99	
CN(NC(=O)c1ccccc1Sc1ccc2c(/C=C/c3ccccn3)n[nH]c2c1)c1ccccc1	16	37	
O=C(NN1CCCC1)c1ccccc1Sc1ccc2c(/C=C/c3ccccn3)n[nH]c2c1	17	23	
O=C(NNC(=O)c1ccccc1Sc1ccc2c(/C=C/c3ccccn3)n[nH]c2c1)c1ccc[nH]1	60	99	
Cc1ccc(NC(=O)c2ccccc2Sc2ccc3c(/C=C/c4ccccn4)n[nH]c3c2)cc1O			6
Cc1cc(NC(=O)c2ccccc2Sc2ccc3c(/C=C/c4ccccn4)n[nH]c3c2)ccc1F			9
Cc1ccc(NC(=O)c2ccccc2Sc2ccc3c(/C=C/c4ccccn4)n[nH]c3c2)c(F)c1			2
O=Nc1c(O)nc(O)nc1NC(=O)c1ccccc1Sc1ccc2c(/C=C/c3ccccn3)n[nH]c2c1			−18
O=C(Nc1ncc([N+](=O)[O-])s1)c1ccccc1Sc1ccc2c(/C=C/c3ccccn3)n[nH]c2c1			−15

Structure (SMILES)	% inhibition of the proliferation of HUVEC [1] [%]	% inhibition of the proliferation of HUVEC [2] [%]	% inhibition [%]
O=C(Nc1ccc2c(c1)OCCO2)c1ccccc1Sc1ccc2c(/C=C/c3ccccn3)n[nH]c2c1			−1
O=C(Nc1cccc(F)c1)c1ccccc1Sc1ccc2c(/C=C/c3ccccn3)n[nH]c2c1			−11
O=C(Nc1cccc2cccnc12)c1ccccc1Sc1ccc2c(/C=C/c3ccccn3)n[nH]c2c1			3
CC(C)Oc1cccc(NC(=O)c2ccccc2Sc2ccc3c(/C=C/c4ccccn4)n[nH]c3c2)c1			1
CSc1nc(NC(=O)c2ccccc2Sc2ccc3c(/C=C/c4ccccn4)n[nH]c3c2)ns1			−27
Cn1nc(C2CC2)cc1NC(=O)c1ccccc1Sc1ccc2c(/C=C/c3ccccn3)n[nH]c2c1			−47
O=C(Nc1ccc2cccc(O)c2n1)c1ccccc1Sc1ccc2c(/C=C/c3ccccn3)n[nH]c2c1			33
O=C(Nc1ccc(C(F)(F)F)cn1)c1ccccc1Sc1ccc2c(/C=C/c3ccccn3)n[nH]c2c1			20
O=C(Nc1ncc(Cl)s1)c1ccccc1Sc1ccc2c(/C=C/c3ccccn3)n[nH]c2c1			−29
CCc1cccc(CC)c1NC(=O)c1ccccc1Sc1ccc2c(/C=C/c3ccccn3)n[nH]c2c1			−17
CC(C)c1cccc(C(C)C)c1NC(=O)c1ccccc1Sc1ccc2c(/C=C/c3ccccn3)n[nH]c2c1			−7
Cc1nc(NC(=O)c2ccccc2Sc2ccc3c(/C=C/c4ccccn4)n[nH]c3c2)n[nH]1			0
COC(=O)c1ccc(NC(=O)c2ccccc2Sc2ccc3c(/C=C/c4ccccn4)n[nH]c3c2)o1			−1
O=C(Nc1ncnc2[nH]ncc12)c1ccccc1Sc1ccc2c(/C=C/c3ccccn3)n[nH]c2c1			4
O=C(Nc1nc(O)nc2[nH]ncc12)c1ccccc1Sc1ccc2c(/C=C/c3ccccn3)n[nH]c2c1			−43
CCCc1cccc(NC(=O)c2ccccc2Sc2ccc3c(/C=C/c4ccccn4)n[nH]c3c2)c1			−42
CCCCCc1ccc(NC(=O)c2ccccc2Sc2ccc3c(/C=C/c4ccccn4)n[nH]c3c2)cc1			13
CCC(C)c1ccc(NC(=O)c2ccccc2Sc2ccc3c(/C=C/c4ccccn4)n[nH]c3c2)cc1 (stereo not shown)			81
O=C(Nc1c(F)cccc1F)c1ccccc1Sc1ccc2c(/C=C/c3ccccn3)n[nH]c2c1			−31
O=C(Nc1cccc(-c2cc[nH]n2)c1)c1ccccc1Sc1ccc2c(/C=C/c3ccccn3)n[nH]c2c1			−3
CC(C)(C)C1CCC(NC(=O)c2ccccc2Sc2ccc3c(/C=C/c4ccccn4)n[nH]c3c2)CC1 (stereo not shown)			0
CC(CCCC(C)(C)O)NC(=O)c1ccccc1Sc1ccc2c(/C=C/c3ccccn3)n[nH]c2c1 (stereo not shown)			3
Cc1ccc(NC(=O)c2ccccc2Sc2ccc3c(/C=C/c4ccccn4)n[nH]c3c2)c(C)c1			13

Structure (SMILES)	% inhibition of the proliferation of HUVEC [1] [%]	% inhibition of the proliferation of HUVEC [2] [%]	% inhibition [%]
COc1ccc(NC(=O)c2ccccc2Sc2ccc3c(/C=C/c4ccccn4)n[nH]c3c2)c(C)c1			0
O=C(Nc1cccnc1Cl)c1ccccc1Sc1ccc2c(/C=C/c3ccccn3)n[nH]c2c1			2
O=C(Nc1ncc(Cl)cc1Cl)c1ccccc1Sc1ccc2c(/C=C/c3ccccn3)n[nH]c2c1			4
COc1ccc(NC(=O)c2ccccc2Sc2ccc3c(/C=C/c4ccccn4)n[nH]c3c2)c(OC)n1			20
O=C(Nc1ccc(Cl)nc1)c1ccccc1Sc1ccc2c(/C=C/c3ccccn3)n[nH]c2c1			2
N#Cc1c(NC(=O)c2ccccc2Sc2ccc3c(/C=C/c4ccccn4)n[nH]c3c2)sc2c1CCC2			−9
Cc1ccc(O)c(NC(=O)c2ccccc2Sc2ccc3c(/C=C/c4ccccn4)n[nH]c3c2)c1			−1
O=C(Nc1cccc2c(O)cccc12)c1ccccc1Sc1ccc2c(/C=C/c3ccccn3)n[nH]c2c1			4
Cc1cc(O)ccc1NC(=O)c1ccccc1Sc1ccc2c(/C=C/c3ccccn3)n[nH]c2c1			12
COC(CCCNC(=O)c1ccccc1Sc1ccc2c(/C=C/c3ccccn3)n[nH]c2c1)OC			9
Cc1ccnc(NC(=O)c2ccccc2Sc2ccc3c(/C=C/c4ccccn4)n[nH]c3c2)c1			−6
NC(=O)c1ccc(NC(=O)c2ccccc2Sc2ccc3c(/C=C/c4ccccn4)n[nH]c3c2)nc1			−2
CC(=O)c1cccc(NC(=O)c2ccccc2Sc2ccc3c(/C=C/c4ccccn4)n[nH]c3c2)c1			5
CC(=O)c1ccc(NC(=O)c2ccccc2Sc2ccc3c(/C=C/c4ccccn4)n[nH]c3c2)cc1			6
O=C(Nc1ccc2ccccc2n1)c1ccccc1Sc1ccc2c(/C=C/c3ccccn3)n[nH]c2c1			18
CCc1ccnc(NC(=O)c2ccccc2Sc2ccc3c(/C=C/c4ccccn4)n[nH]c3c2)c1			20
CCc1ccc(C)nc1NC(=O)c1ccccc1Sc1ccc2c(/C=C/c3ccccn3)n[nH]c2c1			−23
COc1ccc(NC(=O)c2ccccc2Sc2ccc3c(/C=C/c4ccccn4)n[nH]c3c2)cc1F			9
COC(=O)c1nccnc1NC(=O)c1ccccc1Sc1ccc2c(/C=C/c3ccccn3)n[nH]c2c1			7
CCOC(=O)c1ccccc1NC(=O)c1ccccc1Sc1ccc2c(/C=C/c3ccccn3)n[nH]c2c1			−4
Cc1c(O)ccc(NC(=O)c2ccccc2Sc2ccc3c(/C=C/c4ccccn4)n[nH]c3c2)c1C			4
